Species on record: Rattus norvegicus
Assay: Open TG-GATES - Regimen: Single
Assay type: toxicity, organism-based, Sprague-Dawley
Design: regimen Single, gender Male, age 6 weeks
Conditions: in vivo, po, 0 mg/kg, route gavage, dose level Control; for APTT / Bas / Eos / Fbg / Hb / Ht / Lym / MCH / MCHC / MCV / Mono / Neu / PT / Plat / RBC / Ret / WBC: tissue Blood; for KIDNEY_TOTAL: tissue Kidney; for LIVER: tissue Liver; for A/G / ALP / ALT / AST / BUN / CRE / Ca / Cl / DBIL / GLC / IP / K / LDH / Na / PL / RALB / TBIL / TC / TG / TP / gamma-GTP: tissue Plasma

Compound: CN(CCOc1ccc(CC2SC(=O)NC2=O)cc1)c1ccccn1.O=C(O)/C=C\C(=O)O (centres undefined) [ROSIGLITAZONE MALEATE]
- TERMINAL_BW (3 h): 206.3 g
- APTT (3 h): 15.8 s
- Bas (3 h): 0%
- Eos (3 h): 0.6%
- Fbg (3 h): 216.8 mg/dL
- Hb (3 h): 13.1 g/dL
- Ht (3 h): 39.7%
- Lym (3 h): 75.6%
- MCH (3 h): 21.4 pg
- MCHC (3 h): 33.1%
- MCV (3 h): 64.7 fL
- Mono (3 h): 9.2%
- Neu (3 h): 14.4%
- PT (3 h): 12 s
- Plat (3 h): 123.6 x10_4/uL
- RBC (3 h): 614 x10_4/ul
- Ret (3 h): 8.6%
- WBC (3 h): 110.6 x10_2/uL
- KIDNEY_TOTAL (3 h): 0.6 g
- LIVER (3 h): 9.7 g
- A/G (3 h): 2.3
- ALP (3 h): 1326.2 IU/L
- ALT (3 h): 36.6 IU/L
- AST (3 h): 71 IU/L
- BUN (3 h): 13 mg/dL
- CRE (3 h): 0.3 mg/dL
- Ca (3 h): 11.4 mg/dL
- Cl (3 h): 104.2 meq/L
- DBIL (3 h): 0.012 mg/dL
- GLC (3 h): 195.6 mg/dL
- IP (3 h): 8.6 mg/dL
- K (3 h): 4.4 meq/L
- LDH (3 h): 82 IU/L
- Na (3 h): 139.8 meq/L
- PL (3 h): 138.2 mg/dL
- RALB (3 h): 3.7 g/dL
- TBIL (3 h): 0.046 mg/dL
- TC (3 h): 76 mg/dL
- TG (3 h): 71.4 mg/dL
- TP (3 h): 5.4 g/dL
- gamma-GTP (3 h): 0.6 IU/L
- TERMINAL_BW (6 h): 205.9 g
- APTT (6 h): 15.9 s
- Bas (6 h): 0%
- Eos (6 h): 1.2%
- Fbg (6 h): 220.2 mg/dL
- Hb (6 h): 13.2 g/dL
- Ht (6 h): 40%
- Lym (6 h): 80.2%
- MCH (6 h): 21.6 pg
- MCHC (6 h): 32.9%
- MCV (6 h): 65.7 fL
- Mono (6 h): 4.4%
- Neu (6 h): 14.6%
- PT (6 h): 12.2 s
- Plat (6 h): 117 x10_4/uL
- RBC (6 h): 609.4 x10_4/ul
- Ret (6 h): 9.7%
- WBC (6 h): 92.8 x10_2/uL
- KIDNEY_TOTAL (6 h): 0.7 g
- LIVER (6 h): 9.7 g
- A/G (6 h): 2.3
- ALP (6 h): 1368.6 IU/L
- ALT (6 h): 35.6 IU/L
- AST (6 h): 66.6 IU/L
- BUN (6 h): 10.4 mg/dL
- CRE (6 h): 0.3 mg/dL
- Ca (6 h): 11.3 mg/dL
- Cl (6 h): 104.2 meq/L
- DBIL (6 h): 0.01 mg/dL
- GLC (6 h): 183.4 mg/dL
- IP (6 h): 8.9 mg/dL
- K (6 h): 4.4 meq/L
- LDH (6 h): 79.2 IU/L
- Na (6 h): 138.6 meq/L
- PL (6 h): 143.4 mg/dL
- RALB (6 h): 3.7 g/dL
- TBIL (6 h): 0.05 mg/dL
- TC (6 h): 83.6 mg/dL
- TG (6 h): 70.4 mg/dL
- TP (6 h): 5.3 g/dL
- gamma-GTP (6 h): 1 IU/L
- TERMINAL_BW (9 h): 204 g
- APTT (9 h): 15.7 s
- Bas (9 h): 0%
- Eos (9 h): 0.6%
- Fbg (9 h): 221.4 mg/dL
- Hb (9 h): 12.8 g/dL
- Ht (9 h): 39.1%
- Lym (9 h): 73.4%
- MCH (9 h): 21.6 pg
- MCHC (9 h): 32.9%
- MCV (9 h): 65.6 fL
- Mono (9 h): 7.8%
- Neu (9 h): 18.4%
- PT (9 h): 11.9 s
- Plat (9 h): 123 x10_4/uL
- RBC (9 h): 597 x10_4/ul
- Ret (9 h): 9%
- WBC (9 h): 93.6 x10_2/uL
- KIDNEY_TOTAL (9 h): 0.7 g
- LIVER (9 h): 8.8 g
- A/G (9 h): 2.4
- ALP (9 h): 1162.4 IU/L
- ALT (9 h): 34.2 IU/L
- AST (9 h): 68.8 IU/L
- BUN (9 h): 10.8 mg/dL
- CRE (9 h): 0.3 mg/dL
- Ca (9 h): 11 mg/dL
- Cl (9 h): 104.8 meq/L
- DBIL (9 h): 0.01 mg/dL
- GLC (9 h): 184 mg/dL
- IP (9 h): 10 mg/dL
- K (9 h): 4.5 meq/L
- LDH (9 h): 85 IU/L
- Na (9 h): 139.8 meq/L
- PL (9 h): 137.4 mg/dL
- RALB (9 h): 3.8 g/dL
- TBIL (9 h): 0.046 mg/dL
- TC (9 h): 87.6 mg/dL
- TG (9 h): 45.2 mg/dL
- TP (9 h): 5.4 g/dL
- gamma-GTP (9 h): 1 IU/L
- TERMINAL_BW (24 h): 219.8 g
- APTT (24 h): 16.5 s
- Bas (24 h): 0%
- Eos (24 h): 1%
- Fbg (24 h): 225 mg/dL
- Hb (24 h): 12.8 g/dL
- Ht (24 h): 38.9%
- Lym (24 h): 79.4%
- MCH (24 h): 21.5 pg
- MCHC (24 h): 32.8%
- MCV (24 h): 65.6 fL
- Mono (24 h): 5.2%
- Neu (24 h): 14.4%
- PT (24 h): 11.7 s
- Plat (24 h): 124.2 x10_4/uL
- RBC (24 h): 593 x10_4/ul
- Ret (24 h): 8%
- WBC (24 h): 92.8 x10_2/uL
- KIDNEY_TOTAL (24 h): 0.7 g
- LIVER (24 h): 10.7 g
- A/G (24 h): 2.3
- ALP (24 h): 1499.4 IU/L
- ALT (24 h): 38.4 IU/L
- AST (24 h): 66.4 IU/L
- BUN (24 h): 15.4 mg/dL
- CRE (24 h): 0.4 mg/dL
- Ca (24 h): 11.5 mg/dL
- Cl (24 h): 104 meq/L
- DBIL (24 h): 0.016 mg/dL
- GLC (24 h): 188.4 mg/dL
- IP (24 h): 7.7 mg/dL
- K (24 h): 4.4 meq/L
- LDH (24 h): 97 IU/L
- Na (24 h): 140.4 meq/L
- PL (24 h): 164.2 mg/dL
- RALB (24 h): 3.9 g/dL
- TBIL (24 h): 0.038 mg/dL
- TC (24 h): 94.4 mg/dL
- TG (24 h): 107 mg/dL
- TP (24 h): 5.6 g/dL
- gamma-GTP (24 h): 1 IU/L
